Holding throughout (format): functional, cell-based
In test [1] the test system is LNCaP. In words: Antiproliferative activity against human prostate cancer LNCaP cell line by sulforhodamine B assay. (In SRB staining, fixed cells bind dye roughly in proportion to their protein.)
The nature of test [2]: Antiproliferative activity against human prostate cancer PPC-1 cell line by sulforhodamine B assay.
Test [3] deals with DU-145. In words: Antiproliferative activity against human prostate cancer DU-145 cell line by sulforhodamine B assay.
For test [4], the system named is PC-3. In words: Antiproliferative activity against human prostate cancer PC-3 cell line by sulforhodamine B assay.
Test [5] can be described thus: Antiproliferative activity against human prostate cancer TSU-Pr1 cell line by sulforhodamine B assay.

Structures are written as SMILES. Bounds are passed on as bounds.

The IC50 is the midpoint of a concentration-inhibition curve. The low end stands for greater potency in that assay, the high end for weaker potency in that assay.

Consider `CCCCCCCCCCCCCCCCCCNC(=O)[C@@H]1CSC(c2ccc(OCC)cc2)N1` (stereo not given in full), for which the IC50 was 6.1 µM in test [1]; 4.4 µM in test [2]; greater than 20 µM in test [3]; greater than 20 µM in test [4]; greater than 20 µM in test [5].
Regarding `CCCCCCCCCCCCCCCCCCNC(=O)[C@H]1NC(c2ccc(N(C)C)cc2)SC1(C)C` (stereo not given in full), the IC50 in test [1], in test [2], in test [3], in test [4] and in test [5] was greater than 20 µM each time.
As for `CCCCCCCCCCCCCCCCCCNC(=O)[C@@H]1CSC(c2cccc(O)c2)N1` (stereo not given in full), the IC50 in test [1] was determined as 1.7 µM; in test [2], 1.2 µM; in test [3], 5.7 µM; in test [4], 6.7 µM; in test [5], 4 µM.
Take `CCCCCCCCCCCCCCCCCCNC(=O)[C@@H]1CSC(c2c(OC)cc(OC)cc2OC)N1` (stereo not given in full): the IC50 in test [1] turned out to be 2.4 µM; in test [2] it was 0.83 µM; in test [3] it was 7.3 µM; in test [4] it was 10.6 µM; in test [5], 6.1 µM.
As for `CCCCCCCCCCCCCCCCCCNC(=O)[C@@H]1CSC(c2cc(OC)c(OC)c(OC)c2)N1` (stereo not given in full), the IC50 turned out to be 0.82 µM in test [1]; 0.48 µM in test [2]; 3.9 µM in test [3]; 4 µM in test [4]; 2.4 µM in test [5].
Taken in the same sequence, the figures for `CCCCCCCCCCCCCCCCCCNC(=O)[C@H]1NC(c2cc(OC)c(OC)c(OC)c2)SC1(C)C` (stereo not given in full) were greater than 20 µM, 18.8 µM, greater than 20 µM, greater than 20 µM and greater than 20 µM.
In the case of `CCCCCCCCN(CCCCCCCC)C(=O)[C@@H]1CSC(c2cc(OC)c(OC)c(OC)c2)N1` (stereo not given in full), the IC50 was 8.7 µM in test [1]; 14.1 µM in test [2]; greater than 20 µM in test [3]; greater than 20 µM in test [4]; greater than 20 µM in test [5].
For `CCCCCCCCCCCCCCCCCCNC(=O)[C@@H]1CSC(c2ccc(N(C)C)cc2)N1` (stereo not given in full), the 50% inhibitory concentration (IC50) in test [1] turned out to be 1.6 µM; in test [2] it was 1.1 µM; in test [3] it was 5.3 µM; in test [4] it was 6 µM; in test [5], 3 µM.
`CCCCCCCCCCCCCCCCCCNC(=O)[C@@H]1CSC(c2ccc(O)cc2)N1` (stereo not given in full): the IC50 in test [1] worked out at 1.6 µM; in test [2] it was 0.82 µM; in test [3] it was 3.1 µM; in test [4], 5.3 µM; in test [5], 3 µM.
Taken in the same sequence, the figures for `CCCCCCCCCCCCCCCCCCNC(=O)[C@@H]1CSC(c2ccc(OC)cc2)N1` (stereo not given in full) were 2.1 µM, 1.5 µM, 8.7 µM, 19 µM and 19.6 µM.
